Measurements taken from PubChem BioAssay (NCI).
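All cell lines were grown in 96-well plates and treated with compound for 48 hours. Definition used: TGI = concentration required for complete inhibition of growth.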

What was measured:
Assay in all cases: NCI anticancer screen, dose series, 48 h
SK-OV-3 ovarian = test system: SK-OV-3 ovarian
786-0 renal = test system: 786-0 renal
COLO 205 colon = test system: COLO 205 colon
A498 renal = test system: A498 renal
SF-539 CNS = test system: SF-539 CNS
UACC-62 melanoma = test system: UACC-62 melanoma
UACC-257 melanoma = test system: UACC-257 melanoma
TK-10 renal = test system: TK-10 renal
RPMI-8226 leukemia = test system: RPMI-8226 leukemia
LOX IMVI melanoma = test system: LOX IMVI melanoma
DU-145 prostate = test system: DU-145 prostate
OVCAR-4 ovarian = test system: OVCAR-4 ovarian
HCT-116 colon = test system: HCT-116 colon
M14 melanoma = test system: M14 melanoma
HT29 colon = test system: HT29 colon
SK-MEL-5 melanoma = test system: SK-MEL-5 melanoma
MOLT-4 leukemia = test system: MOLT-4 leukemia
OVCAR-5 ovarian = test system: OVCAR-5 ovarian
UO-31 renal = test system: UO-31 renal
T-47D breast = test system: T-47D breast
U251 CNS = test system: U251 CNS
CAKI-1 renal = test system: CAKI-1 renal
LXFL 529 NSCLC = test system: LXFL 529 NSCLC
SNB-78 CNS = test system: SNB-78 CNS
M19-MEL melanoma = test system: M19-MEL melanoma
DMS 114 small cell lung = test system: DMS 114 small cell lung
HCT-15 colon = test system: HCT-15 colon
MALME-3M melanoma = test system: MALME-3M melanoma
SF-295 CNS = test system: SF-295 CNS
SW-620 colon = test system: SW-620 colon
SNB-75 CNS = test system: SNB-75 CNS
KM20L2 colon = test system: KM20L2 colon
DMS 273 small cell lung = test system: DMS 273 small cell lung
CCRF-CEM leukemia = test system: CCRF-CEM leukemia
EKVX NSCLC = test system: EKVX NSCLC
SR leukemia = test system: SR leukemia
OVCAR-3 ovarian = test system: OVCAR-3 ovarian
SK-MEL-28 melanoma = test system: SK-MEL-28 melanoma
HOP-62 NSCLC = test system: HOP-62 NSCLC
HOP-92 NSCLC = test system: HOP-92 NSCLC
BT-549 breast = test system: BT-549 breast
A549 NSCLC = test system: A549 NSCLC
SK-MEL-2 melanoma = test system: SK-MEL-2 melanoma
NCI-H522 lung = test system: NCI-H522 lung
MDA-MB-435 = test system: MDA-MB-435
MDA-MB-231 breast = test system: MDA-MB-231 breast
NCI-H226 lung = test system: NCI-H226 lung
NCI-H23 lung = test system: NCI-H23 lung
HL-60(TB) leukemia = test system: HL-60(TB) leukemia
HCC-2998 colon = test system: HCC-2998 colon
MDA-N = test system: MDA-N
KM12 colon = test system: KM12 colon
XF 498 CNS = test system: XF 498 CNS
NCI/ADR-RES ovarian = test system: NCI/ADR-RES ovarian
K-562 leukemia = test system: K-562 leukemia
IGROV1 ovarian = test system: IGROV1 ovarian
MCF7 breast = test system: MCF7 breast
PC-3 prostate = test system: PC-3 prostate
ACHN renal = test system: ACHN renal
RXF 393 renal = test system: RXF 393 renal
DLD-1 colon = test system: DLD-1 colon
HS 578T breast = test system: HS 578T breast
SNB-19 CNS = test system: SNB-19 CNS
OVCAR-8 ovarian = test system: OVCAR-8 ovarian
SN12C renal = test system: SN12C renal
SF-268 CNS = test system: SF-268 CNS
NCI-H460 lung = test system: NCI-H460 lung

Q: Which TGI (SK-OV-3 ovarian) does the source give for `COC(=O)N/N=C(/CC1(O)C(=O)Nc2ccc([N+](=O)[O-])cc21)c1ccccc1` (configuration not stated) here?
A: The TGI was greater than 100 µM.

Q: And the TGI (786-0 renal)?
A: The TGI was greater than 54.4 µM.

Q: And the TGI (COLO 205 colon)?
A: Its TGI is greater than 82.5 µM.

Q: And the TGI (A498 renal)?
A: The TGI was 25.8 µM.

Q: What about the TGI (SF-539 CNS) of the same compound?
A: Its TGI is greater than 100 µM.

Q: What about the TGI (UACC-62 melanoma) of the same compound?
A: Its TGI is greater than 54.7 µM.

Q: And the TGI (UACC-257 melanoma)?
A: Its TGI is greater than 95.6 µM.

Q: What about the TGI (TK-10 renal) of the same compound?
A: The TGI was 57.6 µM.

Q: What about the TGI (RPMI-8226 leukemia) of the same compound?
A: The TGI was 97.2 µM.

Q: And the TGI (LOX IMVI melanoma)?
A: Its TGI is 36.1 µM.

Q: What about the TGI (DU-145 prostate) of the same compound?
A: The TGI was greater than 100 µM.

Q: What about the TGI (OVCAR-4 ovarian) of the same compound?
A: The TGI was greater than 84.7 µM.

Q: And the TGI (HCT-116 colon)?
A: The TGI was greater than 58.6 µM.

Q: What about the TGI (M14 melanoma) of the same compound?
A: Its TGI is greater than 64.8 µM.

Q: And the TGI (HT29 colon)?
A: Its TGI is greater than 79.4 µM.

Q: And the TGI (SK-MEL-5 melanoma)?
A: The TGI was greater than 60.9 µM.

Q: What about the TGI (MOLT-4 leukemia) of the same compound?
A: Its TGI is greater than 66.7 µM.

Q: What about the TGI (OVCAR-5 ovarian) of the same compound?
A: The TGI was greater than 100 µM.

Q: What about the TGI (UO-31 renal) of the same compound?
A: Its TGI is 91.6 µM.

Q: What about the TGI (T-47D breast) of the same compound?
A: Its TGI is greater than 100 µM.

Q: And the TGI (U251 CNS)?
A: Its TGI is 76.9 µM.

Q: And the TGI (CAKI-1 renal)?
A: The TGI was greater than 100 µM.

Q: And the TGI (LXFL 529 NSCLC)?
A: The TGI was greater than 100 µM.

Q: What about the TGI (SNB-78 CNS) of the same compound?
A: Its TGI is 50.6 µM.

Q: What about the TGI (M19-MEL melanoma) of the same compound?
A: Its TGI is greater than 100 µM.

Q: What about the TGI (DMS 114 small cell lung) of the same compound?
A: The TGI was greater than 100 µM.

Q: And the TGI (HCT-15 colon)?
A: The TGI was greater than 70.6 µM.

Q: What about the TGI (MALME-3M melanoma) of the same compound?
A: Its TGI is greater than 75.4 µM.

Q: And the TGI (SF-295 CNS)?
A: The TGI was 39.2 µM.

Q: What about the TGI (SW-620 colon) of the same compound?
A: Its TGI is greater than 69.4 µM.

Q: And the TGI (SNB-75 CNS)?
A: The TGI was 54.9 µM.

Q: What about the TGI (KM20L2 colon) of the same compound?
A: The TGI was greater than 100 µM.

Q: And the TGI (DMS 273 small cell lung)?
A: The TGI was greater than 100 µM.

Q: What about the TGI (CCRF-CEM leukemia) of the same compound?
A: Its TGI is greater than 76.6 µM.

Q: What about the TGI (EKVX NSCLC) of the same compound?
A: Its TGI is greater than 93.4 µM.

Q: And the TGI (SR leukemia)?
A: The TGI was greater than 68.3 µM.

Q: And the TGI (OVCAR-3 ovarian)?
A: Its TGI is greater than 74.6 µM.

Q: And the TGI (SK-MEL-28 melanoma)?
A: The TGI was greater than 70.9 µM.

Q: And the TGI (HOP-62 NSCLC)?
A: Its TGI is greater than 90.2 µM.

Q: What about the TGI (HOP-92 NSCLC) of the same compound?
A: The TGI was greater than 100 µM.

Q: And the TGI (BT-549 breast)?
A: Its TGI is 92.3 µM.

Q: What about the TGI (A549 NSCLC) of the same compound?
A: The TGI was greater than 100 µM.

Q: What about the TGI (SK-MEL-2 melanoma) of the same compound?
A: Its TGI is greater than 72.9 µM.

Q: And the TGI (NCI-H522 lung)?
A: The TGI was greater than 75.9 µM.

Q: And the TGI (MDA-MB-435)?
A: The TGI was 57.3 µM.

Q: What about the TGI (MDA-MB-231 breast) of the same compound?
A: The TGI was 44 µM.

Q: What about the TGI (NCI-H226 lung) of the same compound?
A: The TGI was 98.3 µM.

Q: And the TGI (NCI-H23 lung)?
A: The TGI was greater than 60.1 µM.

Q: And the TGI (HL-60(TB) leukemia)?
A: Its TGI is 58.8 µM.

Q: And the TGI (HCC-2998 colon)?
A: Its TGI is greater than 100 µM.

Q: What about the TGI (MDA-N) of the same compound?
A: Its TGI is 94.4 µM.

Q: What about the TGI (KM12 colon) of the same compound?
A: Its TGI is greater than 63.7 µM.

Q: And the TGI (XF 498 CNS)?
A: The TGI was 46.5 µM.

Q: What about the TGI (NCI/ADR-RES ovarian) of the same compound?
A: Its TGI is 55.7 µM.

Q: What about the TGI (K-562 leukemia) of the same compound?
A: The TGI was greater than 87.2 µM.

Q: What about the TGI (IGROV1 ovarian) of the same compound?
A: The TGI was greater than 73.6 µM.

Q: What about the TGI (MCF7 breast) of the same compound?
A: Its TGI is 5.61 µM.

Q: What about the TGI (PC-3 prostate) of the same compound?
A: The TGI was greater than 100 µM.

Q: What about the TGI (ACHN renal) of the same compound?
A: Its TGI is greater than 72.2 µM.

Q: What about the TGI (RXF 393 renal) of the same compound?
A: The TGI was 51.4 µM.

Q: What about the TGI (DLD-1 colon) of the same compound?
A: Its TGI is greater than 100 µM.

Q: And the TGI (HS 578T breast)?
A: The TGI was 73.3 µM.

Q: What about the TGI (SNB-19 CNS) of the same compound?
A: Its TGI is greater than 100 µM.

Q: And the TGI (OVCAR-8 ovarian)?
A: Its TGI is greater than 68.5 µM.

Q: And the TGI (SN12C renal)?
A: The TGI was greater than 100 µM.

Q: And the TGI (SF-268 CNS)?
A: The TGI was greater than 100 µM.

Q: What about the TGI (NCI-H460 lung) of the same compound?
A: The TGI was greater than 100 µM.
